In US7704995B2 (Exelixis, Inc., priority 2003, dated 2010):
Where two headings read alike, the source gives them in different places.

Molecular target: T1, Chk1 (Homo sapiens, UniProt O14757)
T1 construct: purchased Upstate Biotechnology
T1 sequence (O14757 1-476): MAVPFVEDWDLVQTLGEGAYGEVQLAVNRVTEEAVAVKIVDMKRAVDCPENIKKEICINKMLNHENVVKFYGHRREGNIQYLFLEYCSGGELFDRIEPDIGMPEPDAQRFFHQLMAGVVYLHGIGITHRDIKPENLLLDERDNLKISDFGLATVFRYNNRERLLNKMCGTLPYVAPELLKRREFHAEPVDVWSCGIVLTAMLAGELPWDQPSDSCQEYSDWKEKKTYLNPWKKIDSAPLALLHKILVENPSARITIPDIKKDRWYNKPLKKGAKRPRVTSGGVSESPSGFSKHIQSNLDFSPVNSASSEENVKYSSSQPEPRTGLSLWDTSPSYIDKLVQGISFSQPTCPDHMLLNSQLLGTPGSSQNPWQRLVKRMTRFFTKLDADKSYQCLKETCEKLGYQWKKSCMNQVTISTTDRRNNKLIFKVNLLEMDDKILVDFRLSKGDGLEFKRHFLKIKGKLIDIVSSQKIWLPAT
Test: Chk1 kinase assay: incorporation of γ-33P ATP into immobilized myelin basic protein
Type: biochemical
Settings: read-out: Chk1 IC50
Summary of the method: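 Incorporation of γ-33P into myelin basic protein coated on plates was scintillation-counted after 1 h at room temperature, duplicate points. Unlabeled ATP was 10 μM with 10 nM Chk1, 30 μM with 20 nM Chk2; buffer Hepes pH 7.6, MgCl2, DTT, 1% DMSO. Output IC50, optionally converted to Ki.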

[1] = Table 11, Chk1 only, class symbols A-D

| IC50 (Table 11, Chk1 only) [nM] | IC50 [nM] | SMILES | further results |
| --- | --- | --- | --- |
| 50 to 1000 |  | CC(C)(NC(=O)c1cccc(-c2cnc(N)c(C(=O)N[C@H]3CCNC3)n2)c1)c1ccccc1 [Example 801, 3-amino-6-(3-{[(1-methyl-1-phenylethyl)amino]carbonyl}phenyl)-N-[(3S)-pyrrolidin-3-yl]pyrazine-2-carboxamide] |  |
| 50 to 1000 |  | Nc1ncc(-c2cccc(C(=O)NC3CCOc4ccccc43)c2)nc1C(=O)N[C@H]1CCNC1 (stereo partly drawn) [Example 778, 3-amino-6-{3-[(3,4-dihydro-2H-chromen-4-ylamino)carbonyl]phenyl}-N-[(3S)-pyrrolidin-3-yl]pyrazine-2-carboxamide] |  |
|  | 50 to 1000 | CNC(=O)c1nc(-c2cccc(C(=O)N[C@H]3CCC[C@@H]3OCc3ccccc3)c2)cnc1N [Example 164, 3-amino-N-methyl-6-{3-[({(1S,2S)-2-[(phenylmethyl)oxy]cyclopentyl}amino)carbonyl]phenyl}pyrazine-2-carboxamide] |  |
| 50 to 1000 |  | Nc1ncc(-c2cccc(CN[C@H]3CCc4ccccc43)c2)nc1C(=O)NCCO [Example 547, 3-amino-6-(3-{[(1S)-2,3-dihydro-1H-inden-1-ylamino]methyl}phenyl)-N-(2-hydroxyethyl)pyrazine-2-carboxamide] |  |
| < 50 |  | CNC(=O)c1nc(-c2cccc(CN[C@H]3CCc4cc(-c5cccs5)ccc43)c2)cnc1N [Example 490, 3-amino-N-methyl-6-[3-({[(1S)-5-(2-thienyl)-2,3-dihydro-1H-inden-1-yl]amino}methyl)phenyl]pyrazine-2-carboxamide] |  |
|  | 1000 to 10000 | CNC(=O)c1nc(-c2cccc(C(=O)N3CCN(C)CC3)c2)cnc1N [Example 93, 3-amino-N-methyl-6-{3-[(4-methylpiperazin-1-yl)carbonyl]phenyl}pyrazine-2-carboxamide] |  |
|  |  | CC(C)(C)OC(=O)N1CC[C@H](NC(=O)c2nc(-c3cccc(S(=O)(=O)N[C@@H]4CCc5ccccc54)c3)cnc2N)C1 [Example 810, 1,1-dimethylethyl (3S)-3-({[3-amino-6-(3-{[(1R)-2,3-dihydro-1H-inden-1-ylamino]sulfonyl}phenyl)pyrazin-2-yl]carbonyl}amino)pyrrolidine-1-carboxylate] | IC50 [1]: ≥ 10000 nM |
| 50 to 1000 |  | CNC(=O)c1nc(-c2cccc(CNc3ccc4ccccc4c3)c2)cnc1N [Example 452, 3-amino-N-methyl-6-{3-[(naphthalen-2-ylamino)methyl]phenyl}pyrazine-2-carboxamide] |  |
|  | 50 to 1000 | CNC(=O)c1nc(-c2cccc(CNC(=O)c3ccc4ccccc4c3)c2)cnc1N [Example 311, 3-amino-N-methyl-6-(3-{[(naphthalen-2-ylcarbonyl)amino]methyl}phenyl)pyrazine-2-carboxamide] |  |
|  | 50 to 1000 | CNC(=O)c1nc(-c2cccc(C(=O)NCC3CCNCC3)c2)cnc1N [Example 135, 3-amino-N-methyl-6-(3-{[(piperidin-4-ylmethyl)amino]carbonyl}phenyl)pyrazine-2-carboxamide] |  |
| 50 to 1000 |  | CNC(=O)c1nc(-c2cccc(CNC(C)(C)c3ccccc3)c2)cnc1N [Example 446, 3-amino-N-methyl-6-(3-{[(1-methyl-1-phenylethyl)amino]methyl}phenyl)pyrazine-2-carboxamide] |  |
| 1000 to 10000 |  | Nc1ncc(-c2cccc(CO)c2)nc1-c1nnc(Cc2ccccc2)[nH]1 [Example 552, (3-{5-amino-6-[5-(phenylmethyl)-4H-1,2,4-triazol-3-yl]pyrazin-2-yl}phenyl)methanol] |  |
| 50 to 1000 |  | Nc1ncc(-c2cccc(CN[C@H]3CCc4ccccc43)c2)nc1C(=O)NCCCn1ccnc1 [Example 586, 3-amino-6-(3-{[(1S)-2,3-dihydro-1H-inden-1-ylamino]methyl}phenyl)-N-[3-(1H-imidazol-1-yl)propyl]pyrazine-2-carboxamide] |  |
| 50 to 1000 |  | Nc1ncc(-c2cccc(CN[C@H]3CCc4ccccc43)c2)nc1C(=O)NCCN1CCCC1 [Example 540, 3-amino-6-(3-{[(1S)-2,3-dihydro-1H-inden-1-ylamino]methyl}phenyl)-N-(2-pyrrolidin-1-ylethyl)pyrazine-2-carboxamide] |  |
|  | 50 to 1000 | CNC(=O)c1nc(-c2cccc(C(=O)NCc3ccc(Br)cc3F)c2)cnc1N [Example 260, 3-amino-6-[3-({[(4-bromo-2-fluorophenyl)methyl]amino}carbonyl)phenyl]-N-methylpyrazine-2-carboxamide] |  |
| ≥ 10000 |  | CC(C)(C)OC(=O)N1CC[C@H](CNC(=O)c2nc(-c3cccc(C(=O)N[C@@H]4c5ccccc5C[C@@H]4O)c3)cnc2N)C1 [Example 786, 1,1-dimethylethyl (3R)-3-{[({3-amino-6-[3-({[(1R,2S)-2-hydroxy-2,3-dihydro-1H-inden-1-yl]amino}carbonyl)phenyl]pyrazin-2-yl}carbonyl)amino]methyl}pyrrolidine-1-carboxylate] |  |

| IC50 (Table 11, Chk1 only) [nM] | IC50 [nM] | SMILES | further results |
| --- | --- | --- | --- |
| 50 to 1000 |  | Nc1ncc(-c2cccc(C3=N[C@@H]4c5ccccc5C[C@@H]4O3)c2)nc1C(=O)NC1CCCNCC1 (stereo partly drawn) [Example 783, 3-amino-N-azepan-4-yl-6-{3-[(3aR,8aS)-8,8a-dihydro-3aH-indeno[1,2-d][1,3]oxazol-2-yl]phenyl}pyrazine-2-carboxamide] |  |
| < 50 |  | CNC(=O)c1nc(-c2cccc(CNC3CCc4cc(-c5ccco5)ccc43)c2)cnc1N (stereo not shown) [Example 472, 3-amino-6-(3-{[(5-furan-2-yl-2,3-dihydro-1H-inden-1-yl)amino]methyl}phenyl)-N-methylpyrazine-2-carboxamide] |  |
| < 50 |  | CSc1ccc(CNC(=O)c2cccc(-c3cnc(N)c(C(=O)N[C@H]4CCNC4)n3)c2)cc1 [Example 747, 3-amino-6-{3-[({[4-(methylthio)phenyl]methyl}amino)carbonyl]phenyl}-N-[(3S)-pyrrolidin-3-yl]pyrazine-2-carboxamide] |  |
|  | 1000 to 10000 | CNC(=O)c1nc(-c2cccc(C(=O)N(C)Cc3ccccc3)c2)cnc1N [Example 99, 3-amino-N-methyl-6-(3-{[methyl(phenylmethyl)amino]carbonyl}phenyl)pyrazine-2-carboxamide] |  |
| 50 to 1000 |  | C[C@H](NC(=O)c1cccc(-c2cnc(N)c(C(=O)N[C@H]3CCNC3)n2)c1)c1ccccc1 [Example 717, 3-amino-6-[3-({[(1S)-1-phenylethyl]amino}carbonyl)phenyl]-N-[(3S)-pyrrolidin-3-yl]pyrazine-2-carboxamide] |  |
| 50 to 1000 |  | Nc1ncc(-c2cccc(CO)c2)nc1-c1nc([C@@H]2CCCNC2)n[nH]1 [Example 724, [3-(5-amino-6{3-[(3R)-piperidin-3-yl]-1H-1,2,4-triazol-5-yl}pyrazin-2-yl)phenyl]methanol] |  |
|  | ≥ 10000 | CNC(=O)c1nc(-c2noc(CCc3ccccc3)n2)cnc1N [Example 72, 3-amino-N-methyl-6-[5-(2-phenylethyl)-1,2,4-oxadiazol-3-yl]pyrazine-2-carboxamide] |  |
|  |  | Nc1ncc(-c2cccc(NC(=O)Cc3ccc(F)cc3)c2)nc1C(=O)N[C@H]1CCCNC1 [Example 983, 3-amino-6-(3-{[(4-fluorophenyl)acetyl]amino}phenyl)-N-[(3S)-piperidin-3-yl]pyrazine-2-carboxamide] | IC50 [1]: < 50 nM |
|  | 50 to 1000 | CNC(=O)c1nc(-c2cccc(CNCc3ccccc3)c2)cnc1N [Example 315, 3-amino-N-methyl-6-(3-{[(phenylmethyl)amino]methyl}phenyl)pyrazine-2-carboxamide] |  |
|  | 50 to 1000 | CNC(=O)c1nc(-c2cccc(CNC(=O)COc3ccc(C(C)C)cc3)c2)cnc1N [Example 346, 3-amino-N-methyl-6-(3-{[({[4-(1-methylethyl)phenyl]oxy}acetyl)amino]methyl}phenyl)pyrazine-2-carboxamide] |  |
|  | 50 to 1000 | CNC(=O)c1nc(-c2cccc(C(=O)NCc3c(F)ccc(C)c3Cl)c2)cnc1N [Example 296, 3-amino-6-[3-({[(2-chloro-6-fluoro-3-methylphenyl)methyl]amino}carbonyl)phenyl]-N-methylpyrazine-2-carboxamide] |  |
|  | 50 to 1000 | CNC(=O)c1nc(-c2ccc3[nH]ccc3c2)cnc1N [Example 267, 3-amino-6-(1H-indol-5-yl)-N-methylpyrazine-2-carboxamide] |  |
| 50 to 1000 |  | Nc1ncc(-c2cccc(C(=O)NC3COc4ccccc43)c2)nc1C(=O)N[C@H]1CCNC1 (stereo partly drawn) [Example 779, 3-amino-6-{3-[(2,3-dihydro-1-benzofuran-3-ylamino)carbonyl]phenyl}-N-[(3S)-pyrrolidin-3-yl]pyrazine-2-carboxamide] |  |
| ≥ 10000 |  | CC(C)(C)OC(=O)N1CCCC(NC(=O)c2nc(-c3cccc(C(=O)N[C@H]4CCc5ccccc54)c3)cnc2N)CC1 (stereo partly drawn) [Example 770, 1,1-dimethylethyl 4-({[3-amino-6-(3-{[(1S)-2,3-dihydro-1H-inden-1-ylamino]carbonyl}phenyl)pyrazin-2-yl]carbonyl}amino)azepane-1-carboxylate] |  |
| < 50 |  | Nc1ncc(-c2cccc(CN[C@H]3CCc4ccccc43)c2)nc1-c1nc([C@H]2CCCNC2)n[nH]1 [Example 704, 5-(3-{[(1S)-2,3-dihydro-1H-inden-1-ylamino]methyl}phenyl)-3-{3-[(3S)-piperidin-3-yl]-1H-1,2,4-triazol-5-yl}pyrazin-2-amine] |  |
